Results reported in PubChem BioAssay (NCI).
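Tested at 5 concentrations; 48 h exposure; 96-well plates; endpoints linearly interpolated, else capped at highest concentration. GI50: concentration for 50% inhibition of growth. TGI denotes the concentration required for complete inhibition of growth.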

Experiments:
Test in all cases: NCI anticancer screen, dose series, 48 h
MDA-N = test system: MDA-N
OVCAR-3 ovarian = test system: OVCAR-3 ovarian
NCI/ADR-RES ovarian = test system: NCI/ADR-RES ovarian
MDA-MB-231 breast = test system: MDA-MB-231 breast
SR leukemia = test system: SR leukemia
SK-MEL-5 melanoma = test system: SK-MEL-5 melanoma
HOP-62 NSCLC = test system: HOP-62 NSCLC
SW-620 colon = test system: SW-620 colon
RXF 393 renal = test system: RXF 393 renal
BT-549 breast = test system: BT-549 breast
UACC-62 melanoma = test system: UACC-62 melanoma
HCC-2998 colon = test system: HCC-2998 colon
SK-MEL-28 melanoma = test system: SK-MEL-28 melanoma
HS 578T breast = test system: HS 578T breast
MCF7 breast = test system: MCF7 breast
MOLT-4 leukemia = test system: MOLT-4 leukemia
DU-145 prostate = test system: DU-145 prostate
MALME-3M melanoma = test system: MALME-3M melanoma
K-562 leukemia = test system: K-562 leukemia
MDA-MB-435 = test system: MDA-MB-435
UACC-257 melanoma = test system: UACC-257 melanoma
HOP-92 NSCLC = test system: HOP-92 NSCLC
EKVX NSCLC = test system: EKVX NSCLC
CCRF-CEM leukemia = test system: CCRF-CEM leukemia
SF-295 CNS = test system: SF-295 CNS
SNB-75 CNS = test system: SNB-75 CNS
SF-539 CNS = test system: SF-539 CNS
HL-60(TB) leukemia = test system: HL-60(TB) leukemia
HCT-116 colon = test system: HCT-116 colon
TK-10 renal = test system: TK-10 renal
IGROV1 ovarian = test system: IGROV1 ovarian
RPMI-8226 leukemia = test system: RPMI-8226 leukemia
SNB-19 CNS = test system: SNB-19 CNS
OVCAR-5 ovarian = test system: OVCAR-5 ovarian
A549 NSCLC = test system: A549 NSCLC
COLO 205 colon = test system: COLO 205 colon
NCI-H23 lung = test system: NCI-H23 lung
NCI-H226 lung = test system: NCI-H226 lung
OVCAR-4 ovarian = test system: OVCAR-4 ovarian
SK-OV-3 ovarian = test system: SK-OV-3 ovarian
U251 CNS = test system: U251 CNS
SK-MEL-2 melanoma = test system: SK-MEL-2 melanoma
HCT-15 colon = test system: HCT-15 colon
A498 renal = test system: A498 renal
SF-268 CNS = test system: SF-268 CNS
NCI-H522 lung = test system: NCI-H522 lung
SN12C renal = test system: SN12C renal
PC-3 prostate = test system: PC-3 prostate
786-0 renal = test system: 786-0 renal
NCI-H460 lung = test system: NCI-H460 lung
T-47D breast = test system: T-47D breast
CAKI-1 renal = test system: CAKI-1 renal
UO-31 renal = test system: UO-31 renal
LOX IMVI melanoma = test system: LOX IMVI melanoma
HT29 colon = test system: HT29 colon
ACHN renal = test system: ACHN renal
OVCAR-8 ovarian = test system: OVCAR-8 ovarian
M14 melanoma = test system: M14 melanoma
KM12 colon = test system: KM12 colon

COC(=O)Cc1c([C@H]2[C@H](CC(=O)OC)c3ccccc3N2C(=O)C(F)(F)F)[nH]c2ccccc12
TGI (MDA-N): > 100 µM
TGI (OVCAR-3 ovarian): 38 µM
TGI (NCI/ADR-RES ovarian): 91.3 µM
TGI (MDA-MB-231 breast): 73.4 µM
TGI (SR leukemia): 82.3 µM
TGI (SK-MEL-5 melanoma): 24.8 µM
TGI (HOP-62 NSCLC): > 100 µM
TGI (SW-620 colon): > 100 µM
TGI (RXF 393 renal): 98.4 µM
TGI (BT-549 breast): 97.2 µM
TGI (UACC-62 melanoma): 30.3 µM
TGI (HCC-2998 colon): > 100 µM
TGI (SK-MEL-28 melanoma): > 100 µM
TGI (HS 578T breast): 92.1 µM
TGI (MCF7 breast): > 100 µM
TGI (MOLT-4 leukemia): 38.4 µM
TGI (DU-145 prostate): > 100 µM
TGI (MALME-3M melanoma): 90.6 µM
TGI (K-562 leukemia): > 100 µM
TGI (MDA-MB-435): 62 µM
TGI (UACC-257 melanoma): > 100 µM
TGI (HOP-92 NSCLC): > 100 µM
TGI (EKVX NSCLC): > 100 µM
TGI (CCRF-CEM leukemia): 56.2 µM
TGI (SF-295 CNS): 80.7 µM
TGI (SNB-75 CNS): 84.6 µM
TGI (SF-539 CNS): > 100 µM
TGI (HL-60(TB) leukemia): > 100 µM
TGI (HCT-116 colon): > 100 µM
TGI (TK-10 renal): > 100 µM
TGI (IGROV1 ovarian): > 100 µM
TGI (RPMI-8226 leukemia): > 100 µM
TGI (SNB-19 CNS): > 100 µM
TGI (OVCAR-5 ovarian): > 100 µM
TGI (A549 NSCLC): > 100 µM
TGI (COLO 205 colon): 36.1 µM
TGI (NCI-H23 lung): > 100 µM
TGI (NCI-H226 lung): > 100 µM
TGI (OVCAR-4 ovarian): > 100 µM
TGI (SK-OV-3 ovarian): > 100 µM
TGI (U251 CNS): 47.8 µM
TGI (SK-MEL-2 melanoma): 58.3 µM
TGI (HCT-15 colon): > 100 µM
TGI (A498 renal): > 100 µM
TGI (SF-268 CNS): > 100 µM
TGI (NCI-H522 lung): 56.2 µM
TGI (SN12C renal): > 100 µM
TGI (PC-3 prostate): > 100 µM
TGI (786-0 renal): > 100 µM
TGI (NCI-H460 lung): 55 µM
TGI (T-47D breast): > 100 µM
TGI (CAKI-1 renal): > 100 µM
TGI (UO-31 renal): > 100 µM
TGI (LOX IMVI melanoma): > 100 µM
TGI (HT29 colon): > 100 µM
TGI (ACHN renal): > 100 µM
TGI (OVCAR-8 ovarian): > 100 µM

O=c1c(Br)c(-c2ccccc2)[nH]c2ccccc12
TGI (MDA-N): > 85.4 µM
TGI (OVCAR-3 ovarian): > 100 µM
TGI (NCI/ADR-RES ovarian): > 100 µM
TGI (MDA-MB-231 breast): 11.8 µM
TGI (SR leukemia): > 100 µM
GI50 (SK-MEL-5 melanoma): 13.6 µM
TGI (SK-MEL-5 melanoma): 29.9 µM
TGI (HOP-62 NSCLC): > 100 µM
TGI (SW-620 colon): > 100 µM
TGI (RXF 393 renal): > 100 µM
TGI (BT-549 breast): > 100 µM
TGI (UACC-62 melanoma): > 100 µM
GI50 (HCC-2998 colon): > 100 µM
TGI (HCC-2998 colon): > 100 µM
TGI (SK-MEL-28 melanoma): > 100 µM
TGI (HS 578T breast): > 100 µM
TGI (MCF7 breast): > 100 µM
GI50 (MOLT-4 leukemia): 20.8 µM
TGI (MOLT-4 leukemia): > 75.6 µM
TGI (DU-145 prostate): > 100 µM
TGI (MALME-3M melanoma): > 100 µM
GI50 (K-562 leukemia): 28.9 µM
TGI (K-562 leukemia): > 100 µM
TGI (MDA-MB-435): > 100 µM
TGI (UACC-257 melanoma): 98 µM
GI50 (HOP-92 NSCLC): 19 µM
TGI (HOP-92 NSCLC): > 100 µM
TGI (M14 melanoma): > 100 µM
GI50 (EKVX NSCLC): 41.5 µM
TGI (EKVX NSCLC): > 100 µM
TGI (CCRF-CEM leukemia): > 100 µM
GI50 (SF-295 CNS): 32.9 µM
TGI (SF-295 CNS): > 100 µM
GI50 (SNB-75 CNS): 63.1 µM
TGI (SNB-75 CNS): > 100 µM
TGI (SF-539 CNS): > 100 µM
TGI (HL-60(TB) leukemia): 56.6 µM
TGI (HCT-116 colon): > 100 µM
TGI (TK-10 renal): > 100 µM
GI50 (KM12 colon): 5.63 µM
TGI (KM12 colon): 63.8 µM
GI50 (IGROV1 ovarian): > 89.4 µM
TGI (IGROV1 ovarian): > 100 µM
TGI (RPMI-8226 leukemia): > 100 µM
GI50 (SNB-19 CNS): > 100 µM
TGI (SNB-19 CNS): > 100 µM
GI50 (OVCAR-5 ovarian): > 100 µM
TGI (OVCAR-5 ovarian): > 100 µM
GI50 (A549 NSCLC): 0.168 µM
TGI (A549 NSCLC): 1.12 µM
TGI (COLO 205 colon): > 100 µM
TGI (NCI-H23 lung): > 100 µM
GI50 (NCI-H226 lung): 37.1 µM
TGI (NCI-H226 lung): > 100 µM
TGI (OVCAR-4 ovarian): > 100 µM
TGI (SK-OV-3 ovarian): > 100 µM
TGI (U251 CNS): > 100 µM
GI50 (SK-MEL-2 melanoma): > 100 µM
TGI (SK-MEL-2 melanoma): > 100 µM
TGI (HCT-15 colon): > 100 µM
GI50 (A498 renal): 31.6 µM
TGI (A498 renal): > 100 µM
GI50 (SF-268 CNS): > 100 µM
TGI (SF-268 CNS): > 100 µM
GI50 (NCI-H522 lung): > 100 µM
TGI (NCI-H522 lung): > 100 µM
GI50 (SN12C renal): > 100 µM
TGI (SN12C renal): > 100 µM
GI50 (PC-3 prostate): 23.6 µM
TGI (PC-3 prostate): > 78.3 µM
GI50 (NCI-H460 lung): 3.54 µM
TGI (NCI-H460 lung): > 100 µM
GI50 (T-47D breast): 36.4 µM
TGI (T-47D breast): > 100 µM
GI50 (CAKI-1 renal): 0.066 µM
TGI (CAKI-1 renal): 0.892 µM
TGI (UO-31 renal): 6.58 µM
TGI (LOX IMVI melanoma): > 100 µM
TGI (HT29 colon): > 100 µM
TGI (ACHN renal): > 100 µM
TGI (OVCAR-8 ovarian): > 100 µM
